{"source": "patent US20240383870A1", "about": "“HETEROCYCLIC ALDEHYDE TRAPPING COMPOUNDS AND USES THEREOF” (Aldeyra Therapeutics, Inc., priority 2021, published 2024)", "assay_type_in_all_cases": "in vivo", "conditions_in_all_cases": "200 mpk PO; LPS-challenged mice, plasma at 6.5 h; unpaired t-test vs vehicle", "key": {"[1]": {"test_system": "eotaxin", "experiment": "Acute LPS-induced sepsis in C57BL/6 mice: eotaxin cytokine detection assay"}, "[2]": {"test_system": "IFNγ", "experiment": "Acute LPS-induced sepsis in C57BL/6 mice: IFNγ cytokine detection assay"}, "[3]": {"test_system": "IL-1α", "experiment": "Acute LPS-induced sepsis in C57BL/6 mice: IL-1α cytokine detection assay", "from_the_text": "FIG. 5 is a graph showing the results of an IL-1α cytokine detection assay in samples collected from mouse subjects after administration of compounds of the present disclosure.\n(§1) The primary objective of this study was to collect plasma samples of lipopolysaccharide (LPS) challenged C57BL/6 mice after dose of test compounds to provide a cytokine profile as impacted by prophylactic treatments. This study models acute sepsis, which is a systemic inflammatory syndrome initiated by Gram-negative and Gram-positive bacteria and fungi which infect the lungs, abdomen, bloodstream, and renal or genitourinary tracts. Sepsis patients ultimately die of multiorgan failure which is caused by extensive tissue hypo-oxygenation due to ongoing microvascular leakage, disseminated intravascular coagulation, compromised energy production, and metabolic alterations. Sepsis is characterized by an early systemic inflammatory response phase featuring symptoms, such as tachycardia, fever, hyperventilation, and activation of the complement and coagulation cascades. However, it is now appreciated that a compensatory anti-inflammatory response phase follows, characterized by neuroendocrine-mediated immunosuppression. […]\n(§2) A 32-plex cytokine panel was obtained from Eve Technologies. Each cytokine was assessed based against a 7 point curve range in duplicate. […]"}, "[4]": {"test_system": "IL-3", "experiment": "Acute LPS-induced sepsis in C57BL/6 mice: IL-3 cytokine detection assay"}, "[5]": {"test_system": "IL-6", "experiment": "Acute LPS-induced sepsis in C57BL/6 mice: IL-6 cytokine detection assay", "from_the_text": "FIG. 11 is a graph showing the results of an IL-6 cytokine detection assay in samples collected from mouse subjects after administration of compounds of the present disclosure.\n(§3) The primary objective of this study was to collect plasma samples of lipopolysaccharide (LPS) challenged C57BL/6 mice after dose of test compounds to provide a cytokine profile as impacted by prophylactic treatments. This study models acute sepsis, which is a systemic inflammatory syndrome initiated by Gram-negative and Gram-positive bacteria and fungi which infect the lungs, abdomen, bloodstream, and renal or genitourinary tracts. Sepsis patients ultimately die of multiorgan failure which is caused by extensive tissue hypo-oxygenation due to ongoing microvascular leakage, disseminated intravascular coagulation, compromised energy production, and metabolic alterations. Sepsis is characterized by an early systemic inflammatory response phase featuring symptoms, such as tachycardia, fever, hyperventilation, and activation of the complement and coagulation cascades. However, it is now appreciated that a compensatory anti-inflammatory response phase follows, characterized by neuroendocrine-mediated immunosuppression. Since these processes are the result of interaction between cells of inflammation and organs, investigation of the treatment of this syndrome requires the use of intact animal models. The use of ten mice per group allows useful statistical modelling of the results.\n(§4) For the data shown in Table 2A, 103 mice (female, 18-22 gram, C57BL/6) were purchased from ENVIGO. The mice were housed in 20 cages of 5 mice per cage with 1 cage of 3 mice as extra. The cages had filter tops and autoclaved bedding, and the animals were placed in quarantine with daily inspection. The treatment groups are detailed in Table 2A below. 10 mice were included in each group. The mice were dosed by oral gavage (PO) at 10 ml/kg as per the table below. MC=methyl cellulose.\nas §4, with “2B, 185” for “2A, 103”, “37” for “20”, “cage.” for “cage with 1 cage of 3 mice as extra.”, “2B” for “2A”, “(P0)” for “(PO)”\n(§5) At T=0 h, the mice were dosed with one of the test compounds as described in the above table.\n(§6) At T=0.5 h, the mice were injected IP with 1.5 mg/kg […] (Sigma).\n(§7) At T=6.5 h, all mice were anesthetized and exsanguinated into pre-chilled EDTA-treated tubes. […]\nas §2"}, "[6]": {"test_system": "IL-9", "experiment": "Acute LPS-induced sepsis in C57BL/6 mice: IL-9 cytokine detection assay", "from_the_text": "FIG. 13 is a graph showing the results of an IL-9 cytokine detection assay in samples collected from mouse subjects after administration of compounds of the present disclosure.\nas §3\nas §4, with “cellulose. […]” for “cellulose.”\nas §2"}, "[7]": {"test_system": "IL-10", "experiment": "Acute LPS-induced sepsis in C57BL/6 mice: IL-10 cytokine detection assay"}, "[8]": {"test_system": "IL-13", "experiment": "Acute LPS-induced sepsis in C57BL/6 mice: IL-13 cytokine detection assay", "from_the_text": "FIG. 17 is a graph showing the results of an IL-13 cytokine detection assay in samples collected from mouse subjects after administration of compounds of the present disclosure.\nas §3, §4\nas §4, with “2B, 185” for “2A, 103”, “37” for “20”, “cage.” for “cage with 1 cage of 3 mice as extra.”, “2B” for “2A”, “(P0)” for “(PO)”\nas §5, §6\n(§8) At T=6.5 h, all mice were anesthetized and exsanguinated into pre-chilled EDTA-treated tubes. The blood was processed to plasma which was stored in labeled 0.5 polypropylene snap-cap tubes (0.5 mL Eppendorf Safe-Lock Tubes (Fisher Scientific) at −80° C.\n(§9) Preparation of vehicle: 1.0 gram of methyl cellulose (Sigma) was dissolved in 200 mL of water (USP purified) to make a solution of 0.5% methyl cellulose in water. Preparation of LPS solution: 6 mg of LPS (from Escherichia Coli 055:B5, Cat #L2880, Sigma Lot #057m4013) was dissolved in 20 ml of saline to give a LPS solution of 0.3 mg/ml. All mice were injected with 5 ml/kg (1.5 mg/kg) at the scheduled time by intraperitoneal injection.\nA 32-plex cytokine panel was obtained from Eve Technologies. Each cytokine was assessed based against a 7 point curve range in duplicate. The average of the two replicate analyses was used for statistics. […]"}, "[9]": {"test_system": "IL-15", "experiment": "Acute LPS-induced sepsis in C57BL/6 mice: IL-15 cytokine detection assay"}, "[10]": {"test_system": "IL-17", "experiment": "Acute LPS-induced sepsis in C57BL/6 mice: IL-17 cytokine detection assay", "from_the_text": "FIG. 19 is a graph showing the results of an IL-17 cytokine detection assay in samples collected from mouse subjects after administration of compounds of the present disclosure.\nas §3\nas §4, with “The mice were dosed by oral gavage (PO) at 10 ml/kg as per the table below.” left out\nas §4, with “2B, 185” for “2A, 103”, “37” for “20”, “cage.” for “cage with 1 cage of 3 mice as extra.”, “2B” for “2A”, “(P0)” for “(PO)”\nas §5, §6, §7, §2"}, "[11]": {"test_system": "KC", "experiment": "Acute LPS-induced sepsis in C57BL/6 mice: KC cytokine detection assay", "from_the_text": "FIG. 20 is a graph showing the results of a KC cytokine detection assay in samples collected from mouse subjects after administration of compounds of the present disclosure.\nas §3, §4\nas §4, with “2B, 185” for “2A, 103”, “37” for “20”, “cage.” for “cage with 1 cage of 3 mice as extra.”, “2B” for “2A”, “(P0)” for “(PO)”\nas §5, §6, §8, §9\n(§10) A 32-plex cytokine panel was obtained from Eve Technologies. Each cytokine was assessed based against a 7 point curve range in duplicate. The average of the two replicate analyses was used for statistics. Unpaired t-tests were performed using Excel™ contrasting vehicle against each treatment group. One star indicates P<0.05. Two stars indicates P<0.01. Three stars indicates P<0.001. Four stars indicates P<0.0001. Most, but not all, statistically significant results are indicated with star(s)."}, "[12]": {"test_system": "leukemia inhibitory factor (LIF)", "experiment": "Acute LPS-induced sepsis in C57BL/6 mice: leukemia inhibitory factor (LIF) cytokine detection assay", "from_the_text": "FIG. 21 is a graph showing the results of a leukemia inhibitory factor (LIF) cytokine detection assay in samples collected from mouse subjects after administration of compounds of the present disclosure. LIF is an interleukin 6 class cytokine that affects cell growth by inhibiting differentiation.\nas §3, §4\nas §4, with “2B, 185” for “2A, 103”, “37” for “20”, “cage.” for “cage with 1 cage of 3 mice as extra.”, “2B” for “2A”, “(P0)” for “(PO)”\nas §5, §6, §8, §9, §2"}, "[13]": {"test_system": "LIX (CXCL5)", "experiment": "Acute LPS-induced sepsis in C57BL/6 mice: LIX (CXCL5) cytokine detection assay", "from_the_text": "FIG. 22 is a graph showing the results of a LIX (CXCL5) cytokine detection assay in samples collected from mouse subjects after administration of compounds of the present disclosure.\nas §1, §2"}, "[14]": {"test_system": "MCP-1(CCL2)", "experiment": "Acute LPS-induced sepsis in C57BL/6 mice: MCP-1(CCL2) cytokine detection assay"}, "[15]": {"test_system": "M-CSF (CSF1)", "experiment": "Acute LPS-induced sepsis in C57BL/6 mice: M-CSF (CSF1) cytokine detection assay", "from_the_text": "FIG. 24 is a graph showing the results of an M-CSF (CSF1) cytokine detection assay in samples collected from mouse subjects after administration of compounds of the present disclosure. M-CSF causes hematopoietic stem cells to differentiate into macrophages.\nas §3, §4\nas §4, with “2B, 185” for “2A, 103”, “37” for “20”, “cage.” for “cage with 1 cage of 3 mice as extra.”, “2B” for “2A”, “(P0)” for “(PO)”\nas §5, §6, §8, §9, §10"}, "[16]": {"test_system": "TNFα", "experiment": "Acute LPS-induced sepsis in C57BL/6 mice: TNFα cytokine detection assay", "from_the_text": "FIG. 29 is a graph showing the results of a TNFα cytokine detection assay in samples collected from mouse subjects after administration of compounds of the present disclosure.\nas §3\nas §4, with “cellulose. […]” for “cellulose.”\nas §2"}, "[17]": {"test_system": "VEGF", "experiment": "Acute LPS-induced sepsis in C57BL/6 mice: VEGF cytokine detection assay", "from_the_text": "FIG. 30 is a graph showing the results of a VEGF cytokine detection assay in samples collected from mouse subjects after administration of compounds of the present disclosure.\nas §1, §2"}}}
{"smiles": "CC(O)(c1sc2cc(C(F)(F)F)ccc2c1N)C(F)(F)F", "note": "(centres unmarked) [Compound I-3, 2-(3-amino-6-(trifluoromethyl)benzo[b]thiophen-2-yl)-1,1,1-trifluoropropan-2-ol]", "values": [{"measurement": "Eotaxin: significant cytokine change vs. vehicle", "setting": "[1]", "value": "** (Two stars indicates P<0.01)"}, {"measurement": "IFNy: significant cytokine change vs. vehicle", "setting": "[2]", "value": "**** (Four stars indicates P<0.0001)"}, {"measurement": "IL-1a: significant cytokine change vs. vehicle", "setting": "[3]", "value": "*** (Three stars indicates P<0.001)"}, {"measurement": "IL-3: significant cytokine change vs. vehicle", "setting": "[4]", "value": "**** (Four stars indicates P<0.0001)"}, {"measurement": "IL-6: significant cytokine change vs. vehicle", "setting": "[5]", "value": "** (Two stars indicates P<0.01)"}, {"measurement": "IL-9: significant cytokine change vs. vehicle", "setting": "[6]", "value": "*** (Three stars indicates P<0.001)"}, {"measurement": "IL-10: significant cytokine change vs. vehicle", "setting": "[7]", "value": "* (One star indicates P<0.05)"}, {"measurement": "IL-13: significant cytokine change vs. vehicle", "setting": "[8]", "value": "*** (Three stars indicates P<0.001)"}, {"measurement": "IL-15: significant cytokine change vs. vehicle", "setting": "[9]", "value": "** (Two stars indicates P<0.01)"}, {"measurement": "IL-17: significant cytokine change vs. vehicle", "setting": "[10]", "value": "*** (Three stars indicates P<0.001)"}, {"measurement": "KC: significant cytokine change vs. vehicle", "setting": "[11]", "value": "** (Two stars indicates P<0.01)"}, {"measurement": "LIF: significant cytokine change vs. vehicle", "setting": "[12]", "value": "* (One star indicates P<0.05)"}, {"measurement": "LIX: significant cytokine change vs. vehicle", "setting": "[13]", "value": "* (One star indicates P<0.05)"}, {"measurement": "MCP-1: significant cytokine change vs. vehicle", "setting": "[14]", "value": "**** (Four stars indicates P<0.0001)"}, {"measurement": "M-CSF: significant cytokine change vs. vehicle", "setting": "[15]", "value": "** (Two stars indicates P<0.01)"}, {"measurement": "TNFa: significant cytokine change vs. vehicle", "setting": "[16]", "value": "** (Two stars indicates P<0.01)"}, {"measurement": "VEGF: significant cytokine change vs. vehicle", "setting": "[17]", "value": "* (One star indicates P<0.05)"}]}
